The results in this text go back to patent publication US9957261B2 (Hoffmann-La Roche Inc., priority 2014, dated 2018).

For one assay, the target named is rat TAAR1 (Rattus norvegicus (Rat), UniProt Q923Y9). Kind of assay: Radioligand binding assay on rat TAAR1. Particulars: rat TAAR1, membranes of stably transfected HEK-293 cells; second value of mouse/rat pair. Here is the method:
(§1) Construction of TAAR Expression Plasmids and Stably Transfected Cell Lines
(§2) For the construction of expression plasmids the coding sequences of human, rat and mouse TAAR 1 were amplified from genomic DNA essentially as described by Lindemann et al.. The Expand High Fidelity PCR System (Roche Diagnostics) was used with 1.5 mM Mg^2+ and purified PCR products were cloned into pCR2.1-TOPO cloning vector (Invitrogen) following the instructions of the manufacturer. PCR products were subcloned into the pIRESneo2 vector (BD Clontech, Palo Alto, Calif.), and expression vectors were sequence verified before introduction in cell lines.
(§3) HEK293 cells (ATCC # CRL-1573) were cultured essentially as described by Lindemann et al. (2005). For the generation of stably transfected cell lines HEK293 cells were transfected with the pIRESneo2 expression plasmids containing the TAAR coding sequences (described above) with Lipofectamine 2000 (Invitrogen) according to the instructions of the manufacturer, and 24 hrs post transfection the culture medium was supplemented with 1 mg/ml G418 (Sigma, Buchs, Switzerland). After a culture period of about 10 d clones were isolated, expanded and tested for responsiveness to trace amines (all compounds purchased from Sigma) with the cAMP Biotrak Enzyme immunoassay (EIA) System (Amersham) following the non-acetylation EIA procedure provided by the manufacturer.
Radioligand Binding Assay on Rat TAAR1
(§4) Membrane Preparation and Radioligand Binding.
(§5) HEK-293 cells stably expressing rat TAAR1 were maintained at 37° C. and 5% CO2 in DMEM high glucose medium, containing fetal calf serum (10%, heat inactivated for 30 min at 56° C.), penicillin/streptomycin (1%), and 375 μg/ml geneticin (Gibco). Cells were released from culture flasks using trypsin/EDTA, harvested, washed twice with ice-cold PBS (without Ca^2+ and Mg^2+), pelleted at 1′000 rpm for 5 min at 4° C., frozen and stored at −80° C. Frozen pellets were suspended in 20 ml HEPES-NaOH (20 mM, pH 7.4) containing 10 mM EDTA and homogenized with a Polytron (PT 6000, Kinematica) at 14,000 rpm for 20 s. The homogenate was centrifuged at 48,000×g for 30 min at 4° C. Subsequently, the supernatant was removed and discarded, and the pellet resuspended in 20 ml HEPES-NaOH (20 mM, pH 7.4) containing 0.1 mM EDTA using the Polytron (20 s at 14,000 rpm). This procedure was repeated and the final pellet resuspended in HEPES-NaOH containing 0.1 mM EDTA and homogenized using the Polytron. Typically, aliquots of 2 ml membrane portions were stored at −80° C. With each new membrane batch the dissociation constant (Kd) was determined via a saturation curve. […] Nonspecific binding was defined as the amount of [H]—(S)-4-[(ethyl-phenyl-amino)-methyl]-4,5-dihydro-oxazol-2-ylamine bound in the presence of 10 μM unlabeled ligand. All compounds were tested at a broad range of concentrations (10 pM to 10 μM) in duplicates. […] The 96 deep well plates were incubated for 1 hr at 4° C. Incubations were terminated by rapid filtration through Unifilter-96 plates (Packard Instrument Company) and glass filters GF/C (Perkin Elmer) presoaked for 1 hr in polyethylenimine (0.3%) and washed 3 times with 1 ml of cold binding buffer. After addition of 45 μl of Microscint 40 (PerkinElmer) the Unifilter-96 plate was sealed and after 1 hr the radioactivity counted using a TopCount Microplate Scintillation Counter (Packard Instrument Company).

In another assay the target is mouse TAAR1 (Mus musculus (Mouse), UniProt Q923Y8). Kind of assay: Radioligand binding assay on mouse TAAR1. Particulars: mouse TAAR1, membranes of stably transfected HEK-293 cells; first value of mouse/rat pair. The procedure: as §1, §2, §3
Sequence of mouse TAAR1 (Q923Y8 whole entry): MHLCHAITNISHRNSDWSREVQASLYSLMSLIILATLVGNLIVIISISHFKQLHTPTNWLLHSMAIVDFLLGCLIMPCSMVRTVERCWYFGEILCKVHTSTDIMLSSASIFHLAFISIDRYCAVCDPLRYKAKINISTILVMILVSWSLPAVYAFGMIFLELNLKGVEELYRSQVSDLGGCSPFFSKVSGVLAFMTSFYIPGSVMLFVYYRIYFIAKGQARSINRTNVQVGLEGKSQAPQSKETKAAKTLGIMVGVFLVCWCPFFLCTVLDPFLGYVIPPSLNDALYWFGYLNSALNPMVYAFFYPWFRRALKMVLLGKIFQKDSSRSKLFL
Radioligand Binding Assay on Mouse TAAR1
as §4
as §5, with “expressing mouse” for “expressing rat”, “of ^3[H]—(S)-4-[(ethyl-phenyl-amino)-methyl]-4,5-dihydro-oxazol-2-ylamine” for “of [H]—(S)-4-[(ethyl-phenyl-amino)-methyl]-4,5-dihydro-oxazol-2-ylamine”

Sequence of rat TAAR1 (Q923Y9 whole entry): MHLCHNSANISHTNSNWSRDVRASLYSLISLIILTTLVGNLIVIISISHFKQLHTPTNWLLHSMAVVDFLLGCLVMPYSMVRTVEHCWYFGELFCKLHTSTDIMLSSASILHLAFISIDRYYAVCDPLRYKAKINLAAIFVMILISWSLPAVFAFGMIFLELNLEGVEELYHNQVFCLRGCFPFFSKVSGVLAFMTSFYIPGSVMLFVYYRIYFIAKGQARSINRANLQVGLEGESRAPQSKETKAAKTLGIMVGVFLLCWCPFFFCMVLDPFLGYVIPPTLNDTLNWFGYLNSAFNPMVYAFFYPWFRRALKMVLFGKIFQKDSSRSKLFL

In the case of `N[C@H]1COc2cc(NC(=O)c3ccnc(C(F)(F)F)c3)ccc2C1` [Example 90, (R)—N-(3-Aminochroman-7-yl)-2-(trifluoromethyl)isonicotinamide], the inhibitory constant (Ki) (in general, a measure of affinity in units of concentration, obtained from inhibition or displacement) on rat TAAR1 stood at 0.0096 µM; at mouse TAAR1, 0.0091 µM.

For the molecule `N[C@H]1CCc2cc(NC(=O)c3ccc4ccccc4c3)ccc2C1` [Example 43, (S)—N-(6-Amino-5,6,7,8-tetrahydronaphthalen-2-yl)-2-naphthamide], the values for the Ki at rat TAAR1 and at mouse TAAR1 were 0.001 µM and 0.0006 µM, respectively.

As for `Cc1cc(C(=O)Nc2ccc3c(c2)OC[C@@H](N)C3)nc(C(F)(F)F)n1` [Example 13, (S)—N-(3-Aminochroman-7-yl)-6-methyl-2-(trifluoromethyl)pyrimidine-4-carboxamide], the Ki on rat TAAR1 is 0.241 µM; at mouse TAAR1, 1.45 µM.

For `Cc1cc(C(=O)Nc2ccc3c(c2)CC[C@H](N)C3)ccn1` [Example 17, (S)—N-(6-Amino-5,6,7,8-tetrahydronaphthalen-2-yl)-2-methylisonicotinamide], the Ki amounted to 0.147 µM on rat TAAR1 and 0.111 µM at mouse TAAR1.

Regarding `Cc1nc(-c2ccc(C(=O)Nc3ccc4c(c3)OC[C@H](N)C4)cc2)cs1` [Example 83, (R)—N-(3-Aminochroman-7-yl)-4-(2-methylthiazol-4-yl)benzamide], the Ki on rat TAAR1 amounted to 0.0034 µM; on mouse TAAR1, 0.0018 µM.

Turning to `Cc1cc(C(=O)Nc2ccc3c(c2)OC[C@H](N)C3)nc(C(F)(F)F)n1` [Example 12, (R)—N-(3-Aminochroman-7-yl)-6-methyl-2-(trifluoromethyl)pyrimidine-4-carboxamide], the Ki turned out to be 0.0436 µM at rat TAAR1 and 0.0581 µM at mouse TAAR1.

For the molecule `CCOc1cc(C(=O)Nc2ccc3c(c2)CC[C@H](N)C3)ccn1` [Example 19, (S)—N-(6-Amino-5,6,7,8-tetrahydronaphthalen-2-yl)-2-ethoxyisonicotinamide], the results for the Ki on rat TAAR1 and on mouse TAAR1 were 0.0216 µM and 0.0187 µM, respectively.

`CCn1nc(C(=O)Nc2ccc3c(c2)OC[C@H](N)C3)c(Br)c1OCC(F)F` [Example 92, (R)—N-(3-Aminochroman-7-yl)-4-bromo-5-(2,2-difluoroethoxy)-1-ethyl-1H-pyrazole-3-carboxamide]: the Ki is 0.0023 µM on rat TAAR1 and 0.0151 µM at mouse TAAR1.

Take `Cc1cc(C(=O)Nc2ccc3c(c2)CC[C@H](N)C3)nc(C(F)(F)F)n1` [Example 7, (S)—N-(6-Amino-5,6,7,8-tetrahydronaphthalen-2-yl)-6-methyl-2-(trifluoromethyl)-pyrimidine-4-carboxamide]: the figures for the inhibitory constant (Ki) on rat TAAR1 and at mouse TAAR1 were 0.0198 µM and 0.0318 µM, respectively.

For the molecule `N[C@@H]1CCc2cc(NC(=O)c3ccc(Cl)cc3)ccc2C1` [Example 14, (R)—N-(6-Amino-5,6,7,8-tetrahydronaphthalen-2-yl)-4-chlorobenzamide], the inhibition constant (Ki) on rat TAAR1 was determined as 0.0069 µM; at mouse TAAR1, 0.0092 µM.

In the case of `NC1CCc2cc(C(=O)Nc3cccc(OC(F)(F)F)c3)ccc2C1` (centres unmarked) [Example 55, 6-Amino-N-(3-(trifluoromethoxy)phenyl)-5,6,7,8-tetrahydronaphthalene-2-carboxamide], the inhibition constant Ki on rat TAAR1 came to 0.0017 µM; on mouse TAAR1, 0.003 µM.

In the case of `COc1cccc(Nc2ccc3c(c2)CC[C@H](N)C3)c1` [Example 94, (S)—N6-(3-Methoxyphenyl)-1,2,3,4-tetrahydronaphthalene-2,6-diamine], the inhibition constant Ki is 0.0462 µM at rat TAAR1 and 0.0541 µM on mouse TAAR1.

For `N[C@H]1CCc2cc(NC(=O)NCc3cccc(OC(F)(F)F)c3)ccc2C1` [Example 63, (S)-1-(6-Amino-5,6,7,8-tetrahydronaphthalen-2-yl)-3-(3-(trifluoromethoxy)benzyl)urea], the inhibitory constant (Ki) amounted to 0.0039 µM at rat TAAR1 and 0.002 µM on mouse TAAR1.

On to `NC1CCc2cc(C(=O)Nc3ccc(C4CC4)cc3)ccc2C1` (centres unmarked) [Example 60, 6-Amino-N-(4-cyclopropylphenyl)-5,6,7,8-tetrahydronaphthalene-2-carboxamide], for which the results for the Ki at rat TAAR1 and at mouse TAAR1 were 0.0213 µM and 0.0096 µM, respectively.

For the molecule `N[C@H]1CCc2cc(NC(=O)c3cnn(-c4ccc(OC(F)(F)F)cc4)c3)ccc2C1` [Example 29, (S)—N-(6-Amino-5,6,7,8-tetrahydronaphthalen-2-yl)-1-(4-(trifluoromethoxy)phenyl)-1H-pyrazole-4-carboxamide], the inhibition constant (Ki) at rat TAAR1 turned out to be 0.0005 µM; on mouse TAAR1, 0.0012 µM.

Turning to `N[C@H]1COc2cc(Nc3ncc(C(F)(F)F)cn3)ccc2C1` [Example 80, (R)—N7-(5-(Trifluoromethyl)pyrimidin-2-yl)chroman-3,7-diamine], the Ki stood at 0.0196 µM at rat TAAR1 and 0.0163 µM on mouse TAAR1.

For `N[C@H]1CCc2cc(NC(=O)c3ccc(F)c(F)c3)ccc2C1` [Example 42, (S)—N-(6-Amino-5,6,7,8-tetrahydronaphthalen-2-yl)-3,4-difluorobenzamide], the Ki on rat TAAR1 stood at 0.0019 µM; at mouse TAAR1 it was 0.0035 µM.

As for `Cc1cc(C(=O)Nc2ccc3c(c2)OCC(N)C3)nc(C(F)(F)F)n1` (centres unmarked) [Example 9, N-(3-Aminochroman-7-yl)-6-methyl-2-(trifluoromethyl)pyrimidine-4-carboxamide], the results for the Ki at rat TAAR1 and at mouse TAAR1 were 0.114 µM and 0.0805 µM, respectively.

For the molecule `Cc1onc(C(=O)Nc2ccc3c(c2)CC[C@H](N)C3)c1Cl` [Example 26, (S)—N-(6-Amino-5,6,7,8-tetrahydronaphthalen-2-yl)-4-chloro-5-methylisoxazole-3-carboxamide], the Ki at rat TAAR1 came to 0.0199 µM; at mouse TAAR1 it was 0.0049 µM.

Consider `CCc1ccc(Nc2ccc3c(c2)CC[C@H](N)C3)cc1` [Example 53, (S)—N6-(4-Ethylphenyl)-1,2,3,4-tetrahydronaphthalene-2,6-diamine], for which the inhibitory constant (Ki) on rat TAAR1 is 0.0083 µM; on mouse TAAR1 it was 0.006 µM.

On to `N[C@H]1CCc2cc(NC(=O)c3[nH]nc(-c4ccc(Cl)o4)c3Cl)ccc2C1` [Example 25, (S)—N-(6-Amino-5,6,7,8-tetrahydronaphthalen-2-yl)-4-chloro-3-(5-chlorofuran-2-yl)-1H-pyrazole-5-carboxamide], for which the Ki at rat TAAR1 was found to be 0.0003 µM; on mouse TAAR1, 0.0007 µM.

On to `NC1CCc2cc(C(=O)Nc3cccc(Cl)c3)ccc2C1` (centres unmarked) [Example 59, 6-Amino-N-(3-chlorophenyl)-5,6,7,8-tetrahydronaphthalene-2-carboxamide], for which the Ki was 0.0109 µM at rat TAAR1 and 0.0018 µM on mouse TAAR1.
